Experimental data as given in ChEMBL document CHEMBL3886774, “Bicyclic substituted pyrimidine compounds” (2016).

Legend:
[1] = molecular target: cGMP-specific 3',5'-cyclic phosphodiesterase (Homo sapiens, UniProt O76074); experiment: The maximum final concentration of the compound was 10 μM. The plate was incubated at 30° C. for 1 h, and 20 μL of 70 μM EDTA was then added to stop the reaction. 26 μL of solution of each well was transferred to a 384-well plate.
[2] = molecular target: Dual 3',5'-cyclic-AMP and -GMP phosphodiesterase 11A (Homo sapiens, UniProt Q9HCR9); experiment: Caliper Mobility-Shift Assay: To a 96-well plate, 20 μL of 10 μM FL-cGMP as the substrate was added; then 1 μL solution of the compound in DMSO or DMSO solution without compound was added; and then 29 μL of 0.28 ng/μL PDE-11 enzyme buffer (100 mM Hepes pH 7.5, 5 mM MgCl2, 0.002% Brij-35) was added. The maximum final concentration of the compound was 10 μM. The plate was incubated at 30° C. for 1 h, and 20 μL of 70 μM EDTA was then added to stop the reaction. 26 μL of solution of each well was transferred to a 384-well plate.
Dual 3',5'-cyclic-AMP and -GMP phosphodiesterase 11A, sequence (Q9HCR9 whole entry): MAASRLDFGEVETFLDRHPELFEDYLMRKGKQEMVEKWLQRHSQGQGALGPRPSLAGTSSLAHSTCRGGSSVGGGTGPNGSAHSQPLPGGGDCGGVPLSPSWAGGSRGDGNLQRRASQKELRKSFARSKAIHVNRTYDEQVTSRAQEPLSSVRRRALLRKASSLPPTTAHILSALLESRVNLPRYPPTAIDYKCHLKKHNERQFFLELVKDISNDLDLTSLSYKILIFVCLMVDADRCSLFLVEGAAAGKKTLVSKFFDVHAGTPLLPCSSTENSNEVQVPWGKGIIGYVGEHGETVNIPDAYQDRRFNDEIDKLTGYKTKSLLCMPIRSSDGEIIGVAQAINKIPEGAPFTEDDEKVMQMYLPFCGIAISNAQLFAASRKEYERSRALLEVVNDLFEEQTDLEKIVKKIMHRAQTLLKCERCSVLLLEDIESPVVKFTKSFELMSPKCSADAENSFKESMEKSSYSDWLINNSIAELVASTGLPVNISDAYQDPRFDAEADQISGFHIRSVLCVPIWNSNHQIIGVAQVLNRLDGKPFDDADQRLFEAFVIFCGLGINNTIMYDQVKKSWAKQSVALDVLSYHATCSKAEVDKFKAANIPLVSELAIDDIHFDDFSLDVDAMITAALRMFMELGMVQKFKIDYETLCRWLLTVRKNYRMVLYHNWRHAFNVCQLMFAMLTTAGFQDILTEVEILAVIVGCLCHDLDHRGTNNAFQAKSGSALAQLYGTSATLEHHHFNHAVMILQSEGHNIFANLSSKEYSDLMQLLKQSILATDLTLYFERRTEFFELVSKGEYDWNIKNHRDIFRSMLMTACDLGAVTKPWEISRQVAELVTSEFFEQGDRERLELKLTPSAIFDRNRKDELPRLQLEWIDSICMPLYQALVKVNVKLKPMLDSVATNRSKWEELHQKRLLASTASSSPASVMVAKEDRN

IC50 [1]: 2.12 nM
IC50 [2]: > 10000 nM
Structure (SMILES): COc1ccc(CNc2nc(N3CC4CC4C3)ncc2C(=O)NCc2ccccn2)cc1Cl (configuration not stated)
